From patent EP4733301A1 (priority 2023, dated 2025)
Values joined by “and” are separate entries in the source; they are usually repeats but may differ in a detail not shown here. Identical values can stand only once. Non-standard residues stand in square brackets, D forms with d. Residues, ends and D or L forms follow the SMILES beside them. *: point of attachment. Dolaproine = CO[C@@H]([C@@H]1CCCN1)[C@@H](C)C(=O)O; Dil = CC[C@H](C)[C@H](NC)[C@@H](CC(=O)O)OC; X1 = C[C@@H](N*)[C@@H](O)c1ccccc1; NMeV = CN[C@H](C(=O)O)C(C)C

Key:
[1] = tested on: 4T1-FAP cells; experiment: CCK-8 cell viability assay (cytotoxicity of MMAE and NAPC-ADC); assay type: cell-based, Mouse; details: 72 hour incubation
Method: Cell viability was assessed using CCK-8 assay. Each experiment was performed in triplicate. To detect cytotoxicity of MMAE and NAPC-ADC, 4T1-FAP cells were seeded at 5×10^4 /mL in 96-well plates in 200 µL rmi-1640 medium containing 10% FBS and 1% penicillin/streptomycin, incubated at 37 °C in a 5% CO2 incubator for 24 hours, then incubated with different concentrations of MMAE and NAPC-ADC for 72 hour, and blank medium containing CCK-8 at a final concentration of 0.5 mg/mL was added. Incubated at 37 °C, 5% CO2 for 2 hours, absorbance was measured at 450 nm. The absorbance of treated cells was compared to that of the control group, whose viability was set at 100%.

[2] = X-ray-induced MeRho release from NAPC-MeRho in PB (fluorescence, UPLC); assay type: physicochemical; details: 10 µM, gradient dose 0 to 60 Gy
Method: As a representative example, the detailed procedure for X-ray-induced reduction of Compound 1 is described below. A stock solution of Compound 1 (10 mM in DMSO) was diluted in PB (0.02 M, pH 7.4) to a final concentration of 10 µM. Solutions were deoxygenated using the aforementioned deoxygenation step prior to X-ray irradiation from 0 to 60 Gy. Reaction mixtures were analyzed using UPLC and a fluorescence spectrometer, and amount of product release was quantified via standard curves.
The elution program for Compounds 1-9 and NAPC-MeRho was Method a: H2O + 5% ACN (0 min)-95% H2O + 5% ACN (0.2 min)-5% H2O + 95% ACN (2.8 min)-5% H2O + 95% ACN (2.9 min)-95% H2O + 5% ACN (3.0 min)-95% H2O + 5% ACN (4.0 min). Injection volume: 10 µL.
The inventors performed proof-of-concept for a radiation-responsive fluorescent probe NAPC-MeRho (FIG. 13), designed for quantitative analysis of radiation-induced release. […] Under physiological conditions, irradiating 10 µM NAPC-MeRho with a gradient dose from 0 to 60 Gy caused fluorescence intensity to increase in a linear manner (FIG. 14 and FIG. 15), and UPLC spectra determined a G-value for MeRho release of 140 nM/Gy (FIG. 15). To test whether the radiation reduction reaction can occur in living cells without interference, stability to biological reducing agents and cytotoxicity to different cell lines were evaluated. […]

[3] = tested on: 4T1-FAP, HT1080-FAP and U87-MG cells; assay type: cell-based; details: 10 µM NAPC-MeRho, different cell lines
Method: (§1) The inventors performed proof-of-concept for a radiation-responsive fluorescent probe NAPC-MeRho (FIG. 13), designed for quantitative analysis of radiation-induced release. The NAPC linker selectively responds to e^-aq generated by X-rays, where C-O bond cleavage of the carbamate occurs, followed by decarboxylation to release fluorescent MeRho (FIG. 13). Under physiological conditions, irradiating 10 µM NAPC-MeRho with a gradient dose from 0 to 60 Gy caused fluorescence intensity to increase in a linear manner (FIG. 14 and FIG. 15), and UPLC spectra determined a G-value for MeRho release of 140 nM/Gy (FIG. 15). To test whether the radiation reduction reaction can occur in living cells without interference, stability to biological reducing agents and cytotoxicity to different cell lines were evaluated. […] VcNa at pH 7.4, and cell viability with 10 µM NAPC-MeRho was greater than 95%.
Cell viability was assessed using CCK-8 assay. Each experiment was performed in triplicate. […] Incubated at 37 °C, 5% CO2 for 2 hours, absorbance was measured at 450 nm. The absorbance of treated cells was compared to that of the control group, whose viability was set at 100%.

[4] = tested on: 4T1-FAP cells; experiment: Confocal fluorescence imaging of radiation-induced MeRho release in cells; assay type: cell-based, Mouse; details: 10 µM
Method: (§2) Typically, cells were seeded at a density of 2×10^5 cells/mL in 35-mm confocal dishes and cultured under hypoxic conditions in an incubator containing 5% CO2 at 37 °C for 24 hours. A stock solution of NAPC-MeRho (10 mM) was prepared in DMSO. Attached cells were washed twice with PBS before adding the fluorescence probe at a final concentration of 10 µM in 1 mL deoxygenated HBSS. After hypoxic incubation at 37 °C for 30 min, they were subjected to X-ray irradiation for […] (0, 4, 8, 16 Gy), and fluorescence images were taken with a laser scanning confocal microscope (Nikon, Japan). Excitation wavelength was 488 nm, fluorescence emission window was 500-530 nm. For imaging quantification, all cells on the image were set as regions of interest, and fluorescence intensity was measured using Nikon imaging software (version 4.0).
(§3) Subsequent irradiation with 4, 8, and 16 Gy presented the appearance of green fluorescence from MeRho release (FIG. 16, right lanes), with fluorescence intensity positively correlated with radiation dose (FIG. 17).

[5] = tested on: HT1080-FAP cells; experiment: as above; assay type: cell-based, Human; details: 10 µM, hypoxic conditions, 30 minutes, no radiation
Method: as §2, §3

[6] = tested on: U87MG cells; experiment: as above; assay type: cell-based; details: 10 µM, hypoxic conditions, 30 minutes, no radiation
Method: as §2, §3

[7] = assay type: physicochemical
Method: 20 µM NAPC-MeRho was mixed with an equal volume of 2 mM sodium ascorbate solution, incubated and detected at different time points using a fluorescence spectrometer and UPLC-MS. Stability test results in cysteine and γ-glutathione solutions were the same.
as §1

[8] = tested on: 4T1-FAP tumors; experiment: Radiation activation of NAPC-MeRho in tumors, fluorescence of tumor sections; assay type: in vivo, BALB/c mice; details: 20 µL of 100 µM locally injected
Method: Then, when examining the reduction of NAPC-MeRho in tumor-bearing mice, 20 µL of 100 µM NAPC-MeRho in PBS was locally injected into 4T1-FAP tumors, and X-ray therapy of 4 Gy was administered 30 minutes post-injection. Due to limited green light penetration, tumors were harvested and quickly frozen, and fluorescence intensity was quantified via confocal imaging. […] Furthermore, the MeRho signal was statistically greater than the non-irradiated group (FIG. 19), providing conclusive evidence that radiation reduction reactions are feasible in vivo.

## CC[C@H](C)[C@@H]([C@@H](CC(=O)N1CCC[C@H]1[C@H](OC)[C@@H](C)C(=O)N[C@H](C)[C@@H](O)c1ccccc1)OC)N(C)C(=O)[C@@H](NC(=O)[C@@H](NC)C(C)C)C(C)C [MMAE] (H-[NMeV]V[Dil][Dolaproine]-X1)
[1]
  IC50: < 1.69 nM and 1.69 nM

## COc1ccc2c(c1)Oc1cc(NC(=O)OCc3cc[n+](C)cc3)ccc1C21OC(=O)c2ccccc21 (stereo not shown) [NAPC-MeRho]
[2]
  G-value for MeRho release: 140 nM/Gy
[3]
  cell viability: greater than 95%
[4]; hypoxic conditions, 30 minutes, no radiation
  spontaneous release of MeRho: no spontaneous release of MeRho
[4]; 4 Gy radiation
  increase of fluorescence intensity: 14.4 fold
[4]; 8 Gy radiation
  increase of fluorescence intensity: 27.9 fold
[4]; 16 Gy radiation
  increase of fluorescence intensity: 54.5 fold
[5]
  spontaneous release of MeRho: no spontaneous release of MeRho
[6]
  spontaneous release of MeRho: no spontaneous release of MeRho
[7]; 10 µM, 100 eq. VcNa, pH 7.4
  stability to reducing agent VcNa: highly stable
[7]; compared with result in sodium ascorbate solution
  stability in cysteine and γ-glutathione solutions: the same
[8]; 4 Gy X-ray 30 minutes post-injection
  fluorescence signal in tumor sections: significantly increased
[8]; NAPC-MeRho only
  fluorescence signal in tumor sections: limited fluorescence signal
